Assay results published in US20240398736A1, “Eyedrops for Treating Scleral Thinning and Screening Method for Therapeutic Agent of Scleral Thinning” (Tsubota Laboratory, Inc., priority 2020, published 2024).
“Also recorded” adds a separate entry of the source. Where two headings read alike, the source gives them in different places.

How the values were obtained:
[1] = test system: myopia-induced juvenile mouse; settings: -30 D lens wearing group
Procedure: It was examined whether or not a difference in the dosage form of 4-PBA affects the change in the lens. In accordance with the description given above in “Experimental Method”, 4-PBA was eye-dropped or intraperitoneally administered to a myopia-induced juvenile mouse, and the thickness of the lens was measured with SD-OCT in the same manner as in the measurement of the axial length.

[2] = for 4-PBA Concentration, Choroid / 4-PBA Concentration, Plasma / 4-PBA Concentration, Retina (right) / 4-PBA Concentration, Sclera: 200 mg/kg intraperitoneally for 1 week
Procedure: Pharmacokinetics in the eye tissue obtained by systemic administration of 4-PBA was confirmed. A specific test method was as follows.
4-PBA (200 mg/kg) was intraperitoneally administered for 1 week. One hour after the last administration, the eyeball was excised, and respective tissues were separated. Tissues from 16 mice (32eyeballs) were pooled to be used as 1 sample, and frozen with liquid nitrogen to be stored until measurement. Before the measurement by LC-MS/MS, a 9-fold weight of methanol/water (1:1, v/v) was added thereto for homogenization, and the resultant was centrifuged (10000×g, 4°° C., 5 minutes) to use a supernatant in analysis.
As a standard reagent, 4-phenylbutyric acid (Tokyo Chemical Industry Co., Ltd.) was used, and LC-MS/MS (LC-20AD system: Shimadzu Corporation, API4000: SCIEX, Tokyo, Japan), and HPLC column, Atlantis dc18 (5 μm, 2.1 mm ID×150 mm, Waters) were used. As a mobile phase, formic acid/water (1:10000, v/v) and acetonitrile were used, and during the analysis, the gradient of each mobile phase was maintained at 50%. A sample injection amount was set to 10 μL, a column temperature was set to 50° C., and a flow rate was set to 0.2 mL/min.
As mass spectrometry (MS) conditions, negative mode electrospray ionization (ESI) was employed, and ion was measured by multiple reaction monitoring (MRM).

[3] = test system: PERK pathway and ATF6 pathway
Procedure: (§1) A solution of sodium phenylbutyrate in PBS (4-PBA; 200 mg/kg) or tauroursodeoxycholic acid (TUDCA; 100 mg/kg) was intraperitoneally injected (i.p.) every day during the myopia induction period.
(§2) Quantitative real-time PCR was performed using StepOnePlus Realtime PCR system with PowerUp SYBR Green Master Mix (Applied Biosystems, CA, USA). Expression level was standardized using B-actin.

[4] = test system: myopia-induced mouse; assay: Intraperitoneal injection of 4-PBA or TUDCA during myopia induction in mouse: axial elongation and refraction (Test Example 3)
Procedure: Specifically, a myopia-induced mouse is produced as follows. It is noted that myopia induction, and measurement of an axial length and refraction were performed by methods similar to those described in Non Patent Literatures 6 and 7. First, a male C57BL6J mouse was put in a standard transparent cage under a 12/12 h light/dark cycle in a temperature controlled clean room. The animal was allowed to free access to standard feed and autoclaved tap water. A 3-week-old mouse immediately after weaning was anesthetized with a mixed anesthetic of three anesthetics, that is, Domitor (Nippon Zenyaku Kogyo Co., Ltd.), Butorphanol (Meiji Seika Pharma Co., Ltd.), and Midazolam (Sandoz K. K.), and the skull was exposed with scissors. As illustrated in FIG. 1(b), a post was provided to stand on the skull, and fixed with dental cements (Super-Bond, Sun Medical Company, Ltd.). The post was provided with a screw thread so that an adjustor described below could be fixed thereon with a nut.
For inducing myopia, a minus lens having a power of −30 diopters (D) (Rainbow Contact, RAINBOW OPTICAL LABORATORY CO., LTD.) was worn on the right eye (myopia-induced eye), and a lens having a power of 0 D or only a frame was worn as a control on the left eye (control eye). […] The protector used here was attached to be integral with the frame portion, but the protector needs not be integral with the lens as long as the lens is not damaged by the behavior of the mouse.
Sodium phenylbutyrate (Cayman Chemical, MI, USA) and tauroursodeoxycholic acid (Sigma Aldrich, Tokyo, Japan) were dissolved in PBS. STF080310 (Selleck Biotech, Tokyo, Japan) or 4μ8C (Selleck Biotech) of an IRE1 inhibitor, GSK2656157 (Selleck Biotech) or GSK2606414 (Selleck Biotech) of a PERK inhibitor, and Nelfinavir Mesylate hydrate (Tokyo Chemical Industry Co., Ltd.) or Ceapin-A7 (Sigma Aldrich) of an ATF6 inhibitor were dissolved in DMSO, and the resultant was diluted to 1:1000 with PBS to be used in an eyedrop test.
as §1

[5] = test system: collagen 1A1 (COL1A1); settings: 2% 4-PBA eyedrop
Procedure: A protein (10 μg/well) of the sclera was separated by SDS-PAGE, transferred onto a PVDF membrane (Merck Millipore, MA, USA), blocked with Blocking One (Nacalai Tesque, Tokyo), and incubated together with anti-ATF6 (BioAcademia), phosphorylation-IRE1 (Ser724, Abcam, Cambridge, UL), IRE1, phosphorylation-eIF2α, eIF2α, and β-actin (Cell Signaling Technologies Japan, Tokyo, Japan) antibodies at 4° C. overnight. The resultant membrane was incubated with an appropriate HRP-bound secondary antibody, and the resultant was visualized with EzWestLumi plus (ATTA, Tokyo, Japan). SDS-PAGE was performed in a 10% acrylamide gel with a protein size marker (Magic Mark XP Western Protein Standard, ThermoFisher Scientific). The concentration measurement and analysis was performed using Image J software.
as §2
4-PBA was administered by eyedrop to a mouse myopia induction model to confirm its influence on collagen 1A1 (COL1A1) and the like corresponding to principal collagens for maintaining the shape of the eyeball. A specific test method was as follows.
PBS (Veh) or 2% 4-PBA was eye-dropped to a myopia-induced mouse, and collagen 1A1 in the sclera (n=7) was evaluated by Western blotting method, and expression of collagen-related mRNA was evaluated by quantitative PCR.

[6] = test system: scleral collagen fibers
Procedure: After experimental intervention and eye parameter measurement, the eyeball was excised from the C57BL6J mouse. For transmission electron microscopic observation, the eyeball of the mouse was fixed in ice-cooled 2.5% glutaraldehyde in PBS for 1 hour, and then was cut along the sagittal plane. The cornea and the lens were excised, and the remaining tissue was further fixed in 2.5% glutaraldehyde/60 mM HEPES buffer (pH 7.4) overnight. The resultant specimen was washed with 60 mM HEPES buffer, and was then incubated in 1% tetroxide osmium/60 mM HEPES buffer at 4° C. for 2 hours, and the resultant was dehydrated through ethanol series, exchanged and embedded in Epon 812 (EM Japan, Tokyo, Japan). After the embedding, the resultant block was sliced into 70 nm, and stained with uranyl acetate and lead citrate. The resultant section was visualized with JEM-1400Plus (JEOL LTD., Tokyo, Japan).
The sclera is a tissue mainly containing collagen, and it is said that collagen fiber narrowing is involved in scleral thinning (see Non Patent Literature 5).

[7] = test system: myopia-induced mouse; settings: 2% 4-PBA eye-dropped every day after myopia induction
Procedure: A solution of 2% sodium phenylbutyrate in PBS (4-PBA) was eye-dropped to both eyes of a myopia induced mouse once a day every day in the evening for 10 days after completing the myopia induction period corresponding to human adulthood. It is noted that administration schedule during the myopia induction period (LIM) and after completing the period is schematically illustrated in FIG. 11.
It was evaluated whether or not axial elongation is inhibited by eyedrop administration of 4-PBA after the myopia induction period (6 weeks old to 8 weeks old), namely, in a period, corresponding to adulthood in a human, when a posterior segment eye disorder is caused by scleral thinning (FIG. 11) differently from the eyedrop administration in the myopia induction period (3 weeks old to 6 weeks old) in a mouse model simulating myopia progression in childhood as described in Patent Literature 1.

[8] = test system: myopia-induced mouse; assay: Eyedrop administration of UPR inhibitors during myopia induction in mouse: axial elongation and refraction (Test Example 2); assay type: in vivo; settings: eyedrop once a day for 10 days during myopia induction; 100 μM each (STF 60 μM); -30 D lens eye
Procedure: Specifically, a myopia-induced mouse is produced as follows.
During the myopia induction, 60 μM STF080312 (STF), 100 μM 4μ8C (4μ8C), 100 μM GSK2656157 (GSK), 100 μM GSK2606414 (GSK2606414), 100 μM Nelfinavir Mesylate hydrate (NFV), or 100μM Ceapin-A7 (Ceapin) was eye-dropped to both eyes once a day every day in the evening for 10 days.
It is said that increase of expression of URP gene pathway is a cause of pathologic axial elongation and scleral thinning in high myopia (Patent Literature 1). Therefore, in this Test Example 2, it was evaluated, in the sclera of a myopia-induced mouse in which scleral thinning had been caused, how the phenotype of axial elongation was affected by a known URP gene inhibitor. It is noted that GSK2656157 (GSK) and GSK2606414 were used as the PERK inhibitor, Nelfinavir Mesylate hydrate (NFV) and Ceapin-A7 were used as the ATF6 inhibitor, and STF080312 (STF) and 4μ8C were used as the IRE1 inhibitor (FIG. 4).
In accordance with the test method described above, the axial elongation caused in using each of the various gene inhibitors in a myopia-induced mouse was evaluated (FIG. 4).
FIGS. 5a and 5b illustrate axial elongation (a) and refraction change (b) obtained after eyedrop administration of 60 μM STF, 100 μM GSK, or 100 μM NFV once a day for 10 days during the myopia induction period of the mouse. Besides, FIGS. 5c and 5d illustrate axial elongation (a) and refraction change (b) obtained after similarly eyedrop administration of a combination of these inhibitors (STF+GSK:S+G, GSK+NFV:G+N, NFV+STF:N+S, or STF+GSK+NTF:S+G+N). Besides, FIG. 6 illustrates axial elongation (a) and refraction change (b) obtained after similarly eyedrop administration of 100 μM GSK2606414, Ceapin-A7, or 4μ8C.

[9] = 4-PBA 200 mg/kg/day intraperitoneal injection, 1st week and 3rd week of myopia induction (LIM)
[10] = TUDCA 100 mg/kg intraperitoneal injection during myopia induction

sodium phenylbutyrate [4-PBA]
lens thickening through myopia induction (LIM) ([1]; 4-PBA administered by eyedrop): lens thickening was not caused
lens thickening through myopia induction (LIM) ([1]; intraperitoneal administration of 4-PBA): did not affect lens thickening
4-PBA Concentration, Choroid ([2]; 15 min after administration): 348 ng/g or ng/mL
4-PBA Concentration, Plasma ([2]; 15 min after administration): 394 ng/g or ng/mL
4-PBA Concentration, Retina (right) ([2]; 15 min after administration): 349 ng/g or ng/mL
4-PBA Concentration, Sclera ([2]; 15 min after administration): 203 ng/g or ng/mL
4-PBA Concentration, Choroid ([2]; 30 min after administration): 117 ng/g or ng/mL
4-PBA Concentration, Plasma ([2]; 30 min after administration): 186 ng/g or ng/mL
4-PBA Concentration, Retina (right) ([2]; 30 min after administration): 88.2 ng/g or ng/mL
4-PBA Concentration, Sclera ([2]; 30 min after administration): 107 ng/g or ng/mL
4-PBA Concentration, Choroid ([2]; 60 min after administration): 76.7 ng/g or ng/mL
4-PBA Concentration, Plasma ([2]; 60 min after administration): 76.2 ng/g or ng/mL
4-PBA Concentration, Retina (right) ([2]; 60 min after administration): 27.9 ng/g or ng/mL
4-PBA Concentration, Sclera ([2]; 60 min after administration): 44.9 ng/g or ng/mL
detection of 4-PBA in the retina, the choroid and the sclera ([2]; intraperitoneally administered): detected
UPR gene expression in the sclera (increase in myopia induced eyes) ([3]; 4-PBA 200 mg/kg/day administered, quantitative PCR): the increase is inhibited by 4-PBA
expression of genes disposed downstream of the PERK pathway and the ATF6 pathway ([3]; eyedrop administration of 2% 4-PBA, FIG. 7): significantly inhibited
axial elongation [4, 9]: the axial elongation is inhibited
myopic refraction [4, 9]: the myopic refraction is inhibited
collagen 1A1 (COL1A1) protein in the sclera (reduction induced by myopia) ([5]; Western blotting): can be cancelled
collagen 1A1 (COL1A1) mRNA in the sclera (reduction induced by myopia) ([5]; quantitative PCR): can be cancelled
mRNAs of Col4a3, Col8a2, Col11a2, and Col15a1 in the sclera (increase by myopia induction) ([5]; quantitative PCR): the increase was cancelled
narrowing of collagen fibers in the sclera ([6]; 4-PBA administered every day over the myopia-induced period, TEM, FIG. 10a): the narrowing of collagen fibers in the sclera was inhibited
scleral collagen fiber cross-sectional area profile ([6]; eyedrop administration of 2% 4-PBA, FIG. 10b): the area profile was restored to the original one
myopic refraction after completing the myopia induction [7]: tended to be inhibited
adulthood axial elongation after completing the myopia induction ([7]; 1st and 3rd weeks): tended to inhibit

O=C(Nc1cnn(Cc2ccc(C(F)(F)F)cc2C(F)(F)F)c1)c1cc(-c2ccco2)on1 [Ceapin-A7]
axial elongation of myopia-induced eye [8]: neither axial elongation nor myopic refraction was inhibited
myopic refraction of myopia-induced eye [8]: neither axial elongation nor myopic refraction was inhibited

Cn1cc(-c2ccc3c(c2)CCN3C(=O)Cc2cccc(C(F)(F)F)c2)c2c(N)ncnc21 [GSK2606414]
axial elongation of myopia-induced eye [8]: neither axial elongation nor myopic refraction was inhibited
myopic refraction of myopia-induced eye [8]: neither axial elongation nor myopic refraction was inhibited

Cc1cc(=O)oc2c(C=O)c(O)ccc12 [4μ8C]
axial elongation of myopia-induced eye [8]: neither axial elongation nor myopic refraction was inhibited
myopic refraction of myopia-induced eye [8]: neither axial elongation nor myopic refraction was inhibited

C[C@H](CCC(=O)NCCS(=O)(=O)O)[C@H]1CC[C@H]2[C@@H]3[C@@H](O)C[C@@H]4C[C@H](O)CC[C@]4(C)[C@H]3CC[C@]12C [TUDCA, tauroursodeoxycholic acid]
axial elongation (pathologic, myopia-induced eye) [4, 10]: pathologic axial elongation alone was inhibited; also recorded: the axial elongation is inhibited
myopic refraction [4, 10]: the myopic refraction is inhibited
physiological axial elongation ([4]; mouse, in vivo): physiological axial elongation was not inhibited
